{"source": "patent US20060063736A1", "about": "“Compositions and methods for inhibiting mucin-type O-linked glycosylation” (priority 2004, published 2006)", "key": {"rppGalNAcT-5": {"biological_target": "T1, rppGalNAcT-5 (Rattus norvegicus, UniProt O88422)", "T1 construct": "plasmids encoding truncated secreted ppGalNAcTs-1 to −5, -7, -10 and -11; FLAG; made in house; host or cells: COS-7", "T1 sequence (O88422 36-930 limits assumed)": "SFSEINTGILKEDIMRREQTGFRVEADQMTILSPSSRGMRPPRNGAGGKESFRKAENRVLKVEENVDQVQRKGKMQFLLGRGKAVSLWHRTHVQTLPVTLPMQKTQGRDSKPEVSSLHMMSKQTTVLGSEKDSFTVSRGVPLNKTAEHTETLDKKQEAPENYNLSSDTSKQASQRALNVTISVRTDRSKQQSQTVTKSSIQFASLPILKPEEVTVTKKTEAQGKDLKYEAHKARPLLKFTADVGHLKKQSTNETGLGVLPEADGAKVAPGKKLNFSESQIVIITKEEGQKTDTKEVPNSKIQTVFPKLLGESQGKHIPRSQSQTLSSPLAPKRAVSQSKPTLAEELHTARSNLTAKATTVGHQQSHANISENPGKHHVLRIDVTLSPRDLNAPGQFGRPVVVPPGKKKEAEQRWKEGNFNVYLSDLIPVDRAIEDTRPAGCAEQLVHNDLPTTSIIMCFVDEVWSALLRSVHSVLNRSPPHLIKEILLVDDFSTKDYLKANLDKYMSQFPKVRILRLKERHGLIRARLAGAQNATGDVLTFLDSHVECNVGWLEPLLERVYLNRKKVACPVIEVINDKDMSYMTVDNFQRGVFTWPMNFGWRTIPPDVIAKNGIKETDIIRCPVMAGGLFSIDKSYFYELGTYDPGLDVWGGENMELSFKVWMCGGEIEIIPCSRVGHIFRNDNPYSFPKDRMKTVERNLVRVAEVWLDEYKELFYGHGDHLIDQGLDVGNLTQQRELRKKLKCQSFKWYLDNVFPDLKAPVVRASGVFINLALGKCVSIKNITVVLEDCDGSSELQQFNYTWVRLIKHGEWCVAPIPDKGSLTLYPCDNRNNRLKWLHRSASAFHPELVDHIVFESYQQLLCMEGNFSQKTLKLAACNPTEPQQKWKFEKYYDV", "experiment": "Radiolabel capture assay, rppGalNAcT-5", "assay_type": "biochemical", "conditions": "α-FLAG purified enzyme", "description": "Radiolabel capture assays using ^14C-labeled UDP-GalNAc were performed as previously described with various concentrations of 1-68A or 2-68A in 2% DMSO. Ten Hagen et al. (2001) J. Biol. Chem. 276:17395-17404.\nTable 1. IC50 values for 1-68A and 2-68A with ppGalNAcTs-1 to −5, -7, -10, -11, β1-4GalT and α1-3GalT. The requirement of glycopeptides as substrates for ppGalNAcT-7 and -10 precluded the use of the ELLA, as both the substrate and product bind HPA-HRP. Thus, the radiolabel capture assay was employed to measure the IC50 values of 1-68A and 2-68A with ppGalNAcT-7 and -10 using MUC5AC (GTTPSPVPTTSTTSAP; SEQ ID NO:15) glycopeptide, previously shown to be substrate for both enzymes. Ten Hagen et al. (1999) J. Biol. Chem. 274:27867-27874; and Ten Hagen et al. (2001) J. Biol. Chem. 276:17395-17404. IC50 values of 1-68A and 2-68A with ppGalNAcT-5 were performed with α-FLAG purified enzyme and radiolabel capture assay, due to low activity and stability of the crude enzyme. m=murine, r=rattus."}, "Jurkat cells": {"test_system": "Jurkat cells", "experiment": "Con A staining of N-linked glycans on Jurkat cells, flow cytometry", "assay_type": "cell-based, human", "conditions": "2 d treatment", "description": "Jurkat cells were seeded at 250,000 cells/well (determined by Coulter cell counter) in 12-well polystyrene tissue culture plates in 1.0 mL of media and treated with various concentrations of 1-68A or 2-68A from 50 mM dimethyl sulfoxide (DMSO) stock solutions or doxorubicin or campothecin from 1 mM DMSO stock solutions. After 2 d, cells were harvested, washed twice with PBS buffer (PBS, pH 7.4, 0.1% FCS, 0.1% NaN3 w/v) and stained with FITC-HPA (1 μg/mL) or FITC-Con A (5 μg/mL with 1 mM CaCl2) in PBS, pH 7.4 in the dark for 1 h at 4° C. Cells were washed twice with PBS buffer, resuspended in 300 μL of PBS buffer and analyzed by flow cytometry (FacsCaliber, BD Instruments). Annexin-V staining was performed according to the manufacturer's protocols (Invitrogen).\nTo directly monitor ppGalNAcT activities in cells, Jurkat cells (human T-cell lymphoma), which are known to produce only the Tn-antigen (FIG. 1) as their O-linked glycans, were chosen. Piller et al. (1990) J. Biol. Chem. 265:9264-9271. Changes in Tn-antigen expression on the surface of Jurkat cells were monitored by HPA binding followed by flow cytometry analysis. Con A staining of N-linked glycans was used as a control for non-specific inhibition of protein glycosylation. Baenziger and Fiete (1979) J. Biol. Chem. 254:2400-2407."}}, "data": [{"smiles": "O=c1ccn([C@@H]2O[C@H](CON=Cc3ccc(O)c(O)c3O)[C@@H](O)[C@H]2O)c(=O)[nH]1", "note": "[1-68A]", "values": [{"measurement": "IC50", "setting": "rppGalNAcT-5", "result": "20 ± 2", "unit": "µM"}, {"measurement": "effect on Con A staining", "setting": "Jurkat cells", "result": "no significant effect"}]}, {"smiles": "O=C(CON=Cc1ccc(O)c(O)c1O)NC[C@H]1O[C@@H](n2ccc(=O)[nH]c2=O)[C@H](O)[C@@H]1O", "note": "[2-68A]", "values": [{"measurement": "IC50", "setting": "rppGalNAcT-5", "result": "26 ± 9", "unit": "µM"}, {"measurement": "effect on Con A staining", "setting": "Jurkat cells", "result": "no significant effect"}]}]}
